# Assay results reported in patent publication US6896895B2, “Carotenoid esters, carotenoid-enriched feeds, and methods of pigmenting foods and foodstuffs” (DSM IP Assets B.V., priority 2000, dated 2005).
# Test system: egg yolk
# Assay: Egg yolk colour: reflectance colorimetry and Roche Yolk Colour Fan
# Format: in vivo, laying hens (ISA Brown)
# Parameters: key to Chroma C*ab Value: CIE L*a*b* chroma C* value; key to Color Fan Value / Color Fan Value Value: visual score on Roche Yolk Colour Fan (RYCF, 1993 version); key to Color Fan Value, Pigmentation: − = off color; + = good color
# Settings: laying hens; for Color Fan Value % of Controls / Chroma C*ab % of Controls / Color Hue h*ab % of Controls / Chroma C*ab Value / Color Fan Value / Color Hue h*ab Value / Color Fan Value Value / Color Fan Value, Pigmentation: egg yolk; for quality in terms of deposition rate and color intensity (chroma C*a*b*) in the egg yolk: compared to the control
# In short: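 ISA Brown laying hens, depleted at least 28 days on low-carotenoid basal diet (<2 mg xanthophylls/kg), fed pigment-supplemented mash ad libitum for three weeks. Pooled yolks of three to six eggs scored with Roche Yolk Colour Fan and measured by reflectance colorimetry (D65, 8°) as CIE L*a*b*, h*, C*; values average four yolk pools.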
# [1] = trial H-12/99, 1.0 mg/kg feed, Table 9
# [2] = trial H-12/99, 2.0 mg/kg feed, Table 9
# [3] = trial H-12/99, 4.0 mg/kg feed, Table 9
# [4] = trial H-12/99, 8.0 mg/kg feed, Table 9
# [5] = trial H-19/98, 4.0 mg/kg feed, Table 9
# [6] = trial H-25/98, 5.0 mg/kg feed, Table 9
# [7] = trial H-25/99, 5.0 mg/kg feed, Table 9
smiles,measurement,setting,value
"CC1=C(/C=C/C(C)=C/C=C/C(C)=C/C=C/C=C(C)/C=C/C=C(\C)C(=O)OC(C)C)C(C)(C)CCC1 [compound (17), isopropyl beta-apo-8′-carotenoate]",Color Fan Value % of Controls,"average over doses, Table 7",105%
same,Chroma C*ab % of Controls,"average over doses, Table 9",98%
same,Color Fan Value % of Controls,"average over doses, Table 9",105%
same,Color Hue h*ab % of Controls,"average over doses, Table 9",101%
same,Chroma C*ab % of Controls,"trial H-12/99, 1.0 mg/kg feed",98%
same,Chroma C*ab Value,"trial H-12/99, 1.0 mg/kg feed",39
same,Color Fan Value,"trial H-12/99, 1.0 mg/kg feed",3
same,Color Fan Value % of Controls,"trial H-12/99, 1.0 mg/kg feed",66%
same,Color Hue h*ab % of Controls,"trial H-12/99, 1.0 mg/kg feed",101%
same,Color Hue h*ab Value,"trial H-12/99, 1.0 mg/kg feed",95
same,Color Fan Value % of Controls,[1],66%
same,Color Fan Value Value,[1],3
same,Chroma C*ab % of Controls,"trial H-12/99, 2.0 mg/kg feed",100%
same,Chroma C*ab Value,"trial H-12/99, 2.0 mg/kg feed",45
same,Color Fan Value,"trial H-12/99, 2.0 mg/kg feed",6
same,Color Fan Value % of Controls,"trial H-12/99, 2.0 mg/kg feed",104%
same,"Color Fan Value, Pigmentation","trial H-12/99, 2.0 mg/kg feed",+
same,Color Hue h*ab % of Controls,"trial H-12/99, 2.0 mg/kg feed",101%
same,Color Hue h*ab Value,"trial H-12/99, 2.0 mg/kg feed",93
same,Color Fan Value % of Controls,[2],104%
same,Color Fan Value Value,[2],6
same,"Color Fan Value, Pigmentation",[2],+
same,Chroma C*ab % of Controls,"trial H-12/99, 4.0 mg/kg feed",98%
same,Chroma C*ab Value,"trial H-12/99, 4.0 mg/kg feed",51
same,Color Fan Value,"trial H-12/99, 4.0 mg/kg feed",6
same,Color Fan Value % of Controls,"trial H-12/99, 4.0 mg/kg feed",97%
same,"Color Fan Value, Pigmentation","trial H-12/99, 4.0 mg/kg feed",+
same,Color Hue h*ab % of Controls,"trial H-12/99, 4.0 mg/kg feed",102%
same,Color Hue h*ab Value,"trial H-12/99, 4.0 mg/kg feed",90
same,Color Fan Value % of Controls,[3],97%
same,Color Fan Value Value,[3],6
same,"Color Fan Value, Pigmentation",[3],+
same,Chroma C*ab % of Controls,"trial H-12/99, 8.0 mg/kg feed",96%
same,Chroma C*ab Value,"trial H-12/99, 8.0 mg/kg feed",54
same,Color Fan Value,"trial H-12/99, 8.0 mg/kg feed",9
same,Color Fan Value % of Controls,"trial H-12/99, 8.0 mg/kg feed",156%
same,"Color Fan Value, Pigmentation","trial H-12/99, 8.0 mg/kg feed",+
same,Color Hue h*ab % of Controls,"trial H-12/99, 8.0 mg/kg feed",100%
same,Color Hue h*ab Value,"trial H-12/99, 8.0 mg/kg feed",85
same,Color Fan Value % of Controls,[4],156%
same,Color Fan Value Value,[4],9
same,"Color Fan Value, Pigmentation",[4],+
same,Chroma C*ab % of Controls,"trial H-19/98, 4.0 mg/kg feed",97%
same,Chroma C*ab Value,"trial H-19/98, 4.0 mg/kg feed",51
same,Color Fan Value,"trial H-19/98, 4.0 mg/kg feed",5
same,Color Fan Value % of Controls,"trial H-19/98, 4.0 mg/kg feed",79%
same,"Color Fan Value, Pigmentation","trial H-19/98, 4.0 mg/kg feed",+
same,Color Hue h*ab % of Controls,"trial H-19/98, 4.0 mg/kg feed",106%
same,Color Hue h*ab Value,"trial H-19/98, 4.0 mg/kg feed",89
same,Color Fan Value % of Controls,[5],79%
same,Color Fan Value Value,[5],5
same,"Color Fan Value, Pigmentation",[5],+
same,Chroma C*ab % of Controls,"trial H-25/98, 5.0 mg/kg feed",99%
same,Chroma C*ab Value,"trial H-25/98, 5.0 mg/kg feed",52
same,Color Hue h*ab % of Controls,"trial H-25/98, 5.0 mg/kg feed",98%
same,Color Hue h*ab Value,"trial H-25/98, 5.0 mg/kg feed",86
same,Color Fan Value % of Controls,[6],130%
same,Color Fan Value Value,[6],9
same,Color Fan Value,"trial H-25/99, 5.0 mg/kg feed",9
same,Color Fan Value % of Controls,"trial H-25/99, 5.0 mg/kg feed",130%
same,quality in terms of deposition rate and color intensity (chroma C*a*b*) in the egg yolk,,comparable quality
"CC(C=CC=C(C)C=CC1=C(C)CCCC1(C)C)=CC=CC=C(C)C=CC=C(C)C(=O)OC(C)(C)C [compound (18), tert. butyl beta-apo-8′-carotenoate]",Color Fan Value % of Controls,"average over doses, Table 7",87%
same,Chroma C*ab % of Controls,"average over doses, Table 9",101%
same,Color Fan Value % of Controls,"average over doses, Table 9",87%
same,Color Hue h*ab % of Controls,"average over doses, Table 9",85%
same,Chroma C*ab % of Controls,"trial H-25/99, 5.0 mg/kg feed",101%
same,Chroma C*ab Value,"trial H-25/99, 5.0 mg/kg feed",52
same,Color Fan Value,"trial H-25/99, 5.0 mg/kg feed",7
same,Color Fan Value % of Controls,"trial H-25/99, 5.0 mg/kg feed",87%
same,"Color Fan Value, Pigmentation","trial H-25/99, 5.0 mg/kg feed",+
same,Color Hue h*ab % of Controls,"trial H-25/99, 5.0 mg/kg feed",85%
same,Color Hue h*ab Value,"trial H-25/99, 5.0 mg/kg feed",74
same,Color Fan Value % of Controls,[7],87%
same,Color Fan Value Value,[7],7
same,"Color Fan Value, Pigmentation",[7],+
same,quality in terms of deposition rate and color intensity (chroma C*a*b*) in the egg yolk,,comparable quality
"CCCC(C)OC(=O)C(C)=CC=CC(C)=CC=CC=C(C)C=CC=C(C)C=CC1=C(C)CCCC1(C)C (stereo not drawn) [compound (19), 2-pentyl beta-apo-8′-carotenoate]",Color Fan Value % of Controls,"average over doses, Table 7",87%
same,Chroma C*ab % of Controls,"average over doses, Table 9",113%
same,Color Fan Value % of Controls,"average over doses, Table 9",87%
same,Color Hue h*ab % of Controls,"average over doses, Table 9",96%
same,Chroma C*ab % of Controls,"trial H-25/99, 5.0 mg/kg feed",113%
same,Chroma C*ab Value,"trial H-25/99, 5.0 mg/kg feed",58
same,Color Fan Value,"trial H-25/99, 5.0 mg/kg feed",7
same,Color Fan Value % of Controls,"trial H-25/99, 5.0 mg/kg feed",87%
same,"Color Fan Value, Pigmentation","trial H-25/99, 5.0 mg/kg feed",+
same,Color Hue h*ab % of Controls,"trial H-25/99, 5.0 mg/kg feed",96%
same,Color Hue h*ab Value,"trial H-25/99, 5.0 mg/kg feed",82
same,Color Fan Value % of Controls,[7],87%
same,Color Fan Value Value,[7],7
same,"Color Fan Value, Pigmentation",[7],+
same,quality in terms of deposition rate and color intensity (chroma C*a*b*) in the egg yolk,,comparable quality
